Test results reported in patent publication US10865451B2, “Non-invasive blood based monitoring of genomic alterations in cancer” (Dana-Farber Cancer Institute, Inc., priority 2013, dated 2020).

Test system: advanced EGFR-mutant NSCLC
Test: Serial ddPCR plasma genotyping of patients on first-line erlotinib (NCT00997334) until RECIST progression
Type: in vivo, human
Protocol: For each eligible patient, plasma was collected during routine care either prior to first-line therapy or at a subsequent time when the cancer was progressing on therapy. Additional follow-up specimens were collected if possible during routine care. Each specimen was collected into one 10 mL EDTA-containing vacutainer and was spun into plasma within 4 hours of collection. Plasma cfDNA was extracted and frozen at −80 C until genotyping. Total DNA concentration in extracted plasma was measured via a modified quantitative PCR assay for human long interspersed element 1 (LINE-1).
Each droplet is individually assigned a positive or negative value based on the fluorescent intensity. The amount of positives and negatives are read by a flow cytometer and are used to calculate the concentration of an allele. To minimize bias and to ensure the integrity of results, the laboratory was blinded to the tumor genotype when testing plasma specimens, but results were selectively unblinded for data analysis. Each plasma sample was analyzed in triplicate with an increasing quantity of input DNA (e.g. 1 μL, 2 μL, and 4 μL). Results were normalized to a mean concentration of mutant alleles per μL DNA input, and reported as copies of mutant allele per 100 μL of DNA, the approximate DNA quantity isolated from one blood specimen.

With `C#Cc1cccc(Nc2ncnc3cc(OCCOC)c(OCCOC)cc23)c1` [erlotinib] the “patients exhibiting a plasma response (drop of plasma level of EGFR sensitizing mutation)” value (9 analysed patients with EGFR exon 19 deletion and detectable pretreatment plasma genotype) was 9 patients, the “patients demonstrating a complete plasma response” value (of 9 analysed patients) was 8 patients and the “patients with plasma levels of mutant EGFR again detected at objective progression (plasma T790M also identified)” value (of 9 analysed patients, at RECIST progression) was 6 patients.
